One test has as its target Plasmepsin V (Plasmodium vivax, UniProt A0A0H4FQ60). Briefly: Inhibition of recombinant Plasmodium vivax Plasmepsin V.
The target in test [1] is cGMP-dependent protein kinase (Plasmodium falciparum, UniProt W7JX98). Briefly: Inhibition of Plasmodium falciparum NF54 PKG.
Test [2] can be described thus: Inhibition of Plasmodium falciparum 3D7 EF2.

Plasmepsin V, sequence (A0A0H4FQ60 whole entry): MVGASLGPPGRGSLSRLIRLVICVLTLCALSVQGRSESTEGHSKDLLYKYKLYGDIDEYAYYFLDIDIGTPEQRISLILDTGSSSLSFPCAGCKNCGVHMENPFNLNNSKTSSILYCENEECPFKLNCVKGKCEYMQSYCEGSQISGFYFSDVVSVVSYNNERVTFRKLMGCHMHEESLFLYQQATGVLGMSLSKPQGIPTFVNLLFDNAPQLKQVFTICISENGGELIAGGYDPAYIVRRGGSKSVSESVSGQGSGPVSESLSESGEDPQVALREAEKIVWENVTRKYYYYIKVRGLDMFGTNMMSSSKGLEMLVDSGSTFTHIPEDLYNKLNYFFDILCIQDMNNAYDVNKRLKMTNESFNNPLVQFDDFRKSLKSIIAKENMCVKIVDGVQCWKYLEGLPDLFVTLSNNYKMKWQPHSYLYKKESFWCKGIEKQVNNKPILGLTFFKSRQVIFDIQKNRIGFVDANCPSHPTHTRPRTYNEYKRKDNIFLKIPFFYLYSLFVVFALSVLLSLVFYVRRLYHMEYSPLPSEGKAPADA
cGMP-dependent protein kinase, sequence (W7JX98 whole entry): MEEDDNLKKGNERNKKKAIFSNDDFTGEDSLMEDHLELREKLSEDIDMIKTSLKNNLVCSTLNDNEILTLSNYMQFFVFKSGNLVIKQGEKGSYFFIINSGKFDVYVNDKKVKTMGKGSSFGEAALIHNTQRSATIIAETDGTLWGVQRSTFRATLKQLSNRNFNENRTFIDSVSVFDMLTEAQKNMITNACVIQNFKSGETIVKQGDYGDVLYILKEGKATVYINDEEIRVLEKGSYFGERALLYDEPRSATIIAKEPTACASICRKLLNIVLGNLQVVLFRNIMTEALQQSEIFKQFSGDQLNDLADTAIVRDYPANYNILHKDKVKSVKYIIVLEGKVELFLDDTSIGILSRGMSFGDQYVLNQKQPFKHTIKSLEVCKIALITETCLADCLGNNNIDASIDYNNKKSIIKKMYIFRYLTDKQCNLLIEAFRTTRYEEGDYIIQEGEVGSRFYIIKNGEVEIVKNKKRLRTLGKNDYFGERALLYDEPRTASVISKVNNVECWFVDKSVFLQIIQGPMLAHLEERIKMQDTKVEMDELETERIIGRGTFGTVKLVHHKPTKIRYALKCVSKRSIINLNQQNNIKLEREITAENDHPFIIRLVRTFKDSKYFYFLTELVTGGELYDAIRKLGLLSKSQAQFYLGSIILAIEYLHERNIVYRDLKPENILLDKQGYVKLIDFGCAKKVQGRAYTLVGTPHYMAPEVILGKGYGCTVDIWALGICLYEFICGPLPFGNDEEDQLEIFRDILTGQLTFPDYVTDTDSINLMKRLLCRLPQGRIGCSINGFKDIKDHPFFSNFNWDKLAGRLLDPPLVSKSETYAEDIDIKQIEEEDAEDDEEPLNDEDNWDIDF

`CC(C)C[C@H](NC(=O)[C@@H](NC(=O)[C@H](CCONC(=N)N)NC(=O)OCc1ccccc1)C(C)C)[C@@H](O)CC(=O)NCCc1ccccc1`: the IC50 on Plasmepsin V was determined as 0.2 nM.

Compound `CN(C)Cc1ccn2c(-c3ccnc(NCC4CC4)n3)c(-c3ccc(F)c(NS(C)(=O)=O)c3)nc2c1` had an IC50 in test [1] of 0.16 nM. Take `O=C(NCCN1CCCC1)c1cc(-c2ccc(CN3CCOCC3)cc2)nc2ccc(F)cc12` [CABAMIQUINE]: in test [2], the IC50 was found to be 2 nM.
